Columns and labels:
dandelion = assay: Example 14 field dandelion test of iron chelates and 50:50 mixtures; type: in vivo, Taraxacum officinale; set-up: Surviving Dandelions (%): concentration or dose not given beside the values
From the text: Solutions were made of FeHEDTA (0.2% Fe), FeEDTA (0.2% Fe), FeEDDS (0.4% Fe), and FeMGDA (0.4% Fe). For the combinations, these 4 solutions were mixed together in a 1:1 ratio. The plots (0.25 m^2) were sprayed 3 times at weekly intervals at a rate of 0.1 L/m^2. The plots contained a mixture of dandelion and hard fescue turfgrass.

dandelions = assay: Example 4 effect of pH on FeHEDTA, greenhouse dandelions; type: in vivo, Taraxacum officinale; conditions: for Dead (#/10): 8 + 5 days after spraying
Experimental: The following non-limiting examples serve to further describe the invention. Unless otherwise specified, all of the iron solutions were made using the same molar concentration of iron ion as chelating agent. All of the outside tests were done on areas of mixed grass and dandelions that were at least 2 months old. For the greenhouse tests, dandelions were grown in a commercial greenhouse mix, using supplemental lighting and heating. Each plant was grown in a 2¼ inch pot to a minimum diameter of 20 cm. All of the solutions were sprayed onto the plants at a rate of 100 ml/m^2. The ferrous sulfate formulations that were used in examples 1, 2, 8 and 9 contained 1% iron (180 mM), 18 mM EDTA, 1% citric acid and 0.5% urea. In all of the examples, the amount of iron is identified in brackets as the percent iron on a weight basis.
All plant damage was assessed using a qualitative rating scale from 0 to 9.
This test compared the effects of FeHEDTA at a range of pH values to potted, greenhouse-grown dandelions. All of the solutions were applied at 0.2% Fe^+3 (35.8 mM). Ammonium sulfate was added at 2%. The plants were re-sprayed after 8 days.

[1] = tested on: dandelion (Taraxacum officinale); assay: Example 12 FeHEDTA field test, dandelion; type: in vivo; conditions: for Survival of Dandelion Plants (%): day 7/day 0
Experimental: This test evaluated FeHEDTA with 0.15% and 0.2% Fe for controlling the chickweed scarlet pimpernel (Anagallis arvensis) and dandelion (Taraxacum officinale). The solution contained 1.3 times the molar amount of chelating agent as iron. Field areas of well established chickweed and dandelion (0.5 m^2) were sprayed at a rate of 100 ml/m^2.

Park Lawn = assay: Example 22 field test FeIDS and/or FeHEDTA with Killex, Park Lawn; type: in vivo; conditions: A7 = 7 days after treatment
Experimental: Plants were fertilized with an all purpose water-soluble fertilizer mix of 20-20-20 (N-P-K; Plant-Prod®) as needed. All broadleaf weeds were grown individually in a 2¼-inch pot until they were a suitable size for herbicide tests (actual weed size is reported in examples below). Perennial ryegrass was also grown in 2¼-inch pots, however many grass seeds were sown in the pot to simulate a small section of turf. Grass plants were continually trimmed to a height of 4 cm, simulating that of a homeowner's lawn. For field tests, plots ¼ m^2 in size were marked out in areas containing the targeted broadleaf weed species growing in turf grass. Plots were continually mowed to simulate a homeowner's lawn. […] In all of the examples, the amounts of the various herbicide components are identified as a percent on a weight basis. […]
(§1) All visual plant damage assessments were made using a quantitative rating scale; percent control relative to the untreated check (0=no effect; 100=plant death).
Materials and Methods: Plots ¼ m^2 in size were marked out in white clover and Park Lawn (turfgrass mixture comprising of 65% perennial ryegrass, 25% chewings/creeping red fescue and 10% Kentucky bluegrass) area in the field. […] Phytotoxicity (%) was assessed on 7 days after treatment (A7).

perennial ryegrass [2] = assay: Example 17 iron chelates with Killex, perennial ryegrass; type: in vivo
Experimental: (§2) Plants were fertilized with an all purpose water-soluble fertilizer mix of 20-20-20 (N-P-K; Plant-Prod®) as needed. All broadleaf weeds were grown individually in a 2¼-inch pot until they were a suitable size for herbicide tests (actual weed size is reported in examples below). Perennial ryegrass was also grown in 2¼-inch pots, however many grass seeds were sown in the pot to simulate a small section of turf. Grass plants were continually trimmed to a height of 4 cm, simulating that of a homeowner's lawn. For field tests, plots ¼ m^2 in size were marked out in areas containing the targeted broadleaf weed species growing in turf grass. Plots were continually mowed to simulate a homeowner's lawn. […] In all of the examples, the amounts of the various herbicide components are identified as a percent on a weight basis.
(§3) Killex® (Scotts Canada, Ltd., Ontario, Canada) is a commonly used selective lawn herbicide and was used as the commercial herbicide for herbicide combinations. The labeled dilution and application rates for Killex® are 6 ml into 1 L of solution (0.6%) applied at 200 ml/m^2.
as §1
Materials and Methods: This trial was conducted in the greenhouse. Nine pots of white clover and 10 pots of perennial ryegrass were selected for each treatment. Herbicidal solutions were prepared using deionized water. The treatments were applied using a handheld trigger sprayer at 200 ml/m^2. All treatments were applied once. Phytotoxicity (%) was assessed 4, 7, and 14 days after application (A4, A7, and A14).

perennial ryegrass [3] = assay: Example 21 Fe chelates with Killex, perennial ryegrass; type: in vivo; conditions: A29 = 29 days after treatment
Experimental: as §2, §3, §1
Materials and Methods: This trial was conducted in the greenhouse. […] Phytotoxicity (%) was assessed 29 days after treatment (A29).

## O=C([O-])CN(CCO)CCN(CC(=O)[O-])CC(=O)[O-].[Fe+3] [FeHEDTA]
dandelion; day 0
  Area Covered by Dandelion (%): 40%
  Dandelion Count (#/0.25 m^2): 63 #/0.25 m^2
dandelion; day 6
  Dandelion Count (#/0.25 m^2): 60 #/0.25 m^2
  Surviving Dandelions (%): 95%
dandelion; day 6, sprayed 3 times at weekly intervals
  Area Covered by Dandelion (%): 20%
dandelion; day 11
  Dandelion Necrosis (%): 95%
dandelion; day 13
  Dandelion Count (#/0.25 m^2): 40 #/0.25 m^2
  Surviving Dandelions (%): 63%
dandelion; day 15
  Area Covered by Dandelion (%): 8%
dandelion; day 18
  Dandelion Necrosis (%): 97%
dandelion; day 21
  Area Covered by Dandelion (%): 2%
  Dandelion Count (#/0.25 m^2): 26 #/0.25 m^2
  Surviving Dandelions (%): 41%
dandelion; day 33
  Dandelion Necrosis (%): 97%
dandelions; 8 + 5 days after spraying (re-sprayed after 8 days), listed as FeHEDTA pH 3 (0.2% Fe)
  Plant Damage (0 to 9): 6.8 0 to 9
dandelions; 8 + 5 days after spraying (re-sprayed after 8 days), listed as FeHEDTA pH 5 (0.2% Fe)
  Plant Damage (0 to 9): 5.4 0 to 9
dandelions; 8 + 5 days after spraying (re-sprayed after 8 days), listed as FeHEDTA pH 7 (0.2% Fe)
  Plant Damage (0 to 9): 5.1 0 to 9
dandelions; 8 + 5 days after spraying (re-sprayed after 8 days), listed as FeHEDTA pH 9 (0.2% Fe)
  Plant Damage (0 to 9): 3.6 0 to 9
dandelions; 8 + 5 days after spraying (re-sprayed after 8 days), listed as FeHEDTA pH 11 (0.2% Fe)
  Plant Damage (0 to 9): 6.6 0 to 9
dandelions; listed as FeHEDTA pH 3 (0.2% Fe)
  Dead (#/10): 5 #/10
dandelions; listed as FeHEDTA pH 5 (0.2% Fe)
  Dead (#/10): 3 #/10
dandelions; listed as FeHEDTA pH 7 (0.2% Fe)
  Dead (#/10): 2 #/10
dandelions; listed as FeHEDTA pH 9 (0.2% Fe)
  Dead (#/10): 1 #/10
dandelions; listed as FeHEDTA pH 11 (0.2% Fe)
  Dead (#/10): 5 #/10
dandelions; 7 days after spraying, listed as FeHEDTA pH 3 (0.2% Fe)
  Plant Damage (0 to 9): 3.2 0 to 9
dandelions; 7 days after spraying, listed as FeHEDTA pH 5 (0.2% Fe)
  Plant Damage (0 to 9): 2.6 0 to 9
dandelions; 7 days after spraying, listed as FeHEDTA pH 7 (0.2% Fe)
  Plant Damage (0 to 9): 1.9 0 to 9
dandelions; 7 days after spraying, listed as FeHEDTA pH 9 (0.2% Fe)
  Plant Damage (0 to 9): 2.0 0 to 9
dandelions; 7 days after spraying, listed as FeHEDTA pH 11 (0.2% Fe)
  Plant Damage (0 to 9): 3.8 0 to 9
[1]; 7 days after spraying, listed as FeHEDTA (0.15% Fe)
  Dandelion Plants (#/0.5 m^2): 19 #/0.5 m^2
[1]; 7 days after spraying, listed as FeHEDTA (0.20% Fe)
  Dandelion Plants (#/0.5 m^2): 24 #/0.5 m^2
[1]; Example 12, text
  numbers of dandelions, in words: significantly reduced
[1]; day 0, listed as FeHEDTA (0.15% Fe)
  Dandelion Plants (#/0.5 m^2): 57 #/0.5 m^2
[1]; day 0, listed as FeHEDTA (0.20% Fe)
  Dandelion Plants (#/0.5 m^2): 84 #/0.5 m^2
[1]; listed as FeHEDTA (0.15% Fe)
  Survival of Dandelion Plants (%): 33%
[1]; listed as FeHEDTA (0.20% Fe)
  Survival of Dandelion Plants (%): 29%
Park Lawn
  Phytotoxicity (%) on Park Lawn: 3%
Perennial ryegrass [2]; A4
  Phytotoxicity (%) against perennial ryegrass: 8%
Perennial ryegrass [2]; A7
  Phytotoxicity (%) against perennial ryegrass: 7%
Perennial ryegrass [2]; A14
  Phytotoxicity (%) against perennial ryegrass: 1%
Perennial ryegrass [3]
  Phytotoxicity (%) on perennial ryegrass: 0%
